Experimental data taken from patent EP1016409B1, “FREEZE DRIED COMPOSITION COMPRISING GLYCOSPHINGOLIPIDS” (KIRIN BEER KABUSHIKI KAISHA, priority 1997, dated 1998).

Experiments:
Type in all cases: physicochemical
[1] = Excipient appropriate to lyophilization 1: re-solubility immediately after lyophilization; conditions: KRN7000 200 µg/ml, Polysorbate 20 0.5%
Method: A variety of monosaccharides and disaccharides were used for examination of excipients of the lyophilized preparation. In this context, the active component (KRN7000) was set at the concentration of 200 µg/ml, and Polysorbate 20 which is used only in a limited amount from the viewpoint of safety was set at the concentration of 0.5% in the following examination.
(§1) First, Polysorbate 20 was dissolved in distilled water in a concentration of 0.5%, and the saccharides were dissolved in such concentrations as listed in Table 6. Next, 20 mg of the active component (KRN7000) was weighed and stirred in 100 ml of the solvents in a heated bath to 80°C for 20 minutes in order to form a solution. After cooling with running water, the mixture was filtered through a 0.22 µm filter, and transparent colorless glass vials having a volume of 5 ml were charged with a 1 ml portion of each of a variety of solutions thus obtained and subjected to lyophilization. Lyophilization was carried out under the condition of preliminary freezing at -40°C for 2 hours and drying at -20°C for 24 hours, 10°C for 12 hours, and finally at 25°C for 5 hours to give the lyophilized product. The degree of vacuum was set at 0.1 Torr or less during drying step.
After the lyophilization step, the lyophilized composition was reconstituted in 1 ml of distilled water for injection, left standing for 30 minutes, and solubility was judged when the foams generated on reconstitution disappeared.
(§2) The solubility was judged by cleaning the outside of the vial and placing it beneath the white light source in a darkroom for observation with naked eye at the position of a luminous intensity of about 5,000 lux. When the sample was clear with no precipitates, it was judged that the active component was dissolved.

[2] = Additives for improving re-solubility during storage, sucrose as excipient; conditions: lyophilized, KRN7000 200 µg/ml, Polysorbate 20 0.5%, Sucrose 9.6%
Method: as §1, with “sucrose and a variety of additives” for “the saccharides were dissolved in”, “9.” for “6.”
After the lyophilization step, the lyophilized composition thus obtained was stored at 25°C or 50°C, or at both of these temperatures. After storage at 25°C for 1 month or at 50°C for 3 days, the lyophilized composition was reconstituted in 1 ml of distilled water for injection, left standing for 30 minutes, and solubility was judged when the foams generated on reconstitution disappeared. The samples judged in solution were further stored, and judged again of their solubility after storage at 25°C for 4 months or at 50°C for 2 weeks.
as §2

[3] = Cooling condition after dissolution with heating 1: turbidity; conditions: Polysorbate 20 0.5%, histidine 0.75%, sucrose 5.6%, cooling 73°C → 30°C; for Turbidity After filtration / Turbidity Before filtration: 800 mg KRN7000 in 4 liters; for Turbidity After filtration: 0.22 µm filter; for Turbidity After filtration / Turbidity Lyophilized composition: kaolin 1 µg/ml = turbidity 1.00; for Turbidity Before filtration: kaolin 1 µg/ml = turbidity 1.00, 660 nm; for Turbidity Lyophilized composition: reconstituted after 3 hours at room temperature (25°C)
Method: First, Polysorbate 20 was dissolved in distilled water in a concentration of 0.5%, histidine in a concentration of 0.75%, and sucrose in a concentration of 5.6%. Next, 800 mg of the active component (KRN7000) was weighed and stirred in 4 liters of the solvent under heating at 73°C for 30 minutes in order to form a solution. After dissolution, the mixture was divided into about 500 ml portions, cooled with stirring from 73°C to 30°C (6 minutes), from 73°C to 30°C (23 minutes), and from 73°C to 30°C (120 minutes). After cooling, the mixtures were filtered through a 0.22 µm filter, and transparent colorless glass vials having a volume of 5 ml were charged with a 1 ml portion of each of a variety of solutions thus obtained and subjected to lyophilization. Lyophilization was carried out under the condition of preliminary freezing at -50°C for 5 hours and drying at -15°C for 48 hours, 10°C for 12 hours, and finally at 25°C for 7 hours to give the lyophilized product. The degree of vacuum was set at 0.1 Torr or less during drying step.
The turbidity of the solutions prepared respective cooling conditions before or after the filtration step, and the lyophilized composition thus obtained which were reconstituted after leaving standing at room temperature (25°C) for 3 hours from the lyophilization step, were measured. In this connection, the lyophilized composition was reconstituted in 1 ml of distilled water for injection, left standing for 30 minutes, and turbidity was measured when the foams generated on reconstitution disappeared.
The turbidity was measured by the following method: various dilutions including 50-fold dilution (kaolin 2 µg/ml, turbidity 2.00), 100-fold dilution (kaolin 1 µg/ml, turbidity 1.00), and 200-fold dilution (kaolin 0.5 µg/ml, turbidity 0.50) were prepared by diluting the turbidity standard (kaolin, […]) with distilled water. A calibration curve was made by measuring the absorbance at a wave length of 660 nm with a control of distilled water and the various dilutions in a spectrophotometer (HITACHI U-3210). Next, the absorbance of the solutions was measured under the same condition as above to calculate the turbidity of the solutions.

Compound: CCCCCCCCCCCCCCCCCCCCCCCCCC(=O)N[C@@H](CO[C@H]1O[C@H](CO)[C@H](O)[C@H](O)[C@H]1O)[C@H](O)[C@H](O)CCCCCCCCCCCCCC [KRN7000, (2S,3S,4R)-1-(α-D-galactopyranosyloxy)-2-hexacosanoylamino-3,4-octadecanediol]
- Re-solubility immediately after lyophilization ([1]; Fructose 5%): + (+ not dissolved (or deposited))
- Re-solubility immediately after lyophilization ([1]; Fructose 10%): + (+ not dissolved (or deposited))
- Re-solubility immediately after lyophilization ([1]; Glucose 5%): - (- dissolved)
- Re-solubility immediately after lyophilization ([1]; Glucose 10%): + (+ not dissolved (or deposited))
- Re-solubility immediately after lyophilization ([1]; Lactose 5%): + (+ not dissolved (or deposited))
- Re-solubility immediately after lyophilization ([1]; Lactose 10%): + (+ not dissolved (or deposited))
- Re-solubility immediately after lyophilization ([1]; Maltose 1.5%): + (+ not dissolved (or deposited))
- Re-solubility immediately after lyophilization ([1]; Maltose 3%): + (+ not dissolved (or deposited))
- Re-solubility immediately after lyophilization ([1]; Mannitol 5%): + (+ not dissolved (or deposited))
- Re-solubility immediately after lyophilization ([1]; Mannitol 10%): - (- dissolved)
- Re-solubility immediately after lyophilization ([1]; Sorbitol 5%): + (+ not dissolved (or deposited))
- Re-solubility immediately after lyophilization ([1]; Sorbitol 10%): + (+ not dissolved (or deposited))
- Re-solubility immediately after lyophilization ([1]; Sucrose 4.8%): - (- dissolved)
- Re-solubility immediately after lyophilization ([1]; Sucrose 9.6%): - (- dissolved)
- Re-solubility immediately after lyophilization ([1]; Xylitol 4.3%): + (+ not dissolved (or deposited))
- Re-solubility immediately after lyophilization ([1]; Xylitol 8.6%): + (+ not dissolved (or deposited))
- Re-solubility after storage (by naked eye) ([2]; Arginine, 0.1%, 50°C, 3 days): + (+ not dissolved (or deposited))
- Re-solubility after storage (by naked eye) ([2]; Glycerol, 1%, 25°C, 1 month): + (+ not dissolved (or deposited))
- Re-solubility after storage (by naked eye) ([2]; Glycine, 0.1%, 50°C, 3 days): + (+ not dissolved (or deposited))
- Re-solubility after storage (by naked eye) ([2]; Glycine, 1%, 50°C, 3 days): + (+ not dissolved (or deposited))
- Re-solubility after storage (by naked eye) ([2]; Histidine, 2%, 50°C, 2 weeks): - (- dissolved)
- Re-solubility after storage (by naked eye) ([2]; Histidine, 2%, 50°C, 3 days): - (- dissolved)
- Re-solubility after storage (by naked eye) ([2]; Pluronic F68, 0.1%, 25°C, 1 month): - (- dissolved)
- Re-solubility after storage (by naked eye) ([2]; Pluronic F68, 0.1%, 25°C, 4 month): + (+ not dissolved (or deposited))
- Re-solubility after storage (by naked eye) ([2]; Pluronic F68, 1%, 25°C, 1 month): - (- dissolved)
- Re-solubility after storage (by naked eye) ([2]; Pluronic F68, 1%, 25°C, 4 month): + (+ not dissolved (or deposited))
- Re-solubility after storage (by naked eye) ([2]; Propylene glycol, 1%, 25°C, 1 month): + (+ not dissolved (or deposited))
- Re-solubility after storage (by naked eye) ([2]; Sodium deoxycholate, 0.1%, 25°C, 1 month): - (- dissolved)
- Re-solubility after storage (by naked eye) ([2]; Sodium deoxycholate, 0.1%, 25°C, 4 month): + (+ not dissolved (or deposited))
- Re-solubility after storage (by naked eye) ([2]; Sodium deoxycholate, 1%, 25°C, 1 month): - (- dissolved)
- Re-solubility after storage (by naked eye) ([2]; Sodium deoxycholate, 1%, 25°C, 4 month): - (- dissolved)
- Re-solubility after storage (by naked eye) ([2]; Sodium deoxycholate, 1%, 50°C, 2 weeks): - (- dissolved)
- Re-solubility after storage (by naked eye) ([2]; Sodium deoxycholate, 1%, 50°C, 3 days): - (- dissolved)
- Re-solubility after storage (by naked eye) ([2]; no additive, 25°C, 1 month): - (- dissolved)
- Re-solubility after storage (by naked eye) ([2]; no additive, 25°C, 4 month): + (+ not dissolved (or deposited))
- Re-solubility after storage (by naked eye) ([2]; no additive, 50°C, 3 days): + (+ not dissolved (or deposited))
- Turbidity After filtration ([3]; 6 minutes): 0.13
- Turbidity Before filtration ([3]; 6 minutes): 0.23
- Turbidity After filtration ([3]; 23 minutes): 0.15
- Turbidity Before filtration ([3]; 23 minutes): 0.58
- Turbidity After filtration ([3]; 120 minutes): 0.16
- Turbidity Before filtration ([3]; 120 minutes): 0.64
- Turbidity Lyophilized composition ([3]; 6 minutes): 0.24
- Turbidity Lyophilized composition ([3]; 23 minutes): 0.36
- Turbidity Lyophilized composition ([3]; 120 minutes): 0.36
